Measurements reported in article PMC7684578, “Isopedopeptins A–H: Cationic Cyclic Lipodepsipeptides from Pedobacter cryoconitis UP508 Targeting WHO Top-Priority Carbapenem-Resistant Bacteria” (ACS Chemical Biology, 2020).
Like-named read-outs stand apart in the source and are kept apart here. Starred links: 1 amine or outer side, 2 acyl side, 3 side chain; linkers in the order of their positions; H or OH if unused. Positions of bridges follow the written chain, without caps; N, C: chain ends. Non-standard residues stand in square brackets, D forms with d. Residues, ends and D or L forms follow the SMILES beside them. X4 = CC(C)CCC=CCCC[C@H](CC(=O)[*:1])O[*:2]; X6 = CC(C)CCCCC=CC[C@H](CC(=O)[*:1])O[*:2]; X5 = CC(C)CCCCCCC[C@H](CC(=O)[*:1])O[*:2]; X3 = CC(C)CCCCC[C@H](CC(=O)[*:1])O[*:2]; X7 = CCCCCCC=CC[C@H](CC(=O)[*:1])O[*:2]; X2 = CCCCCCC[C@H](CC(=O)[*:1])O[*:2]; Val(3-OH) = CC(C)(O)[C@H](N)C(=O)O; X1 = C/C=C(/N[*:1])C(=O)[*:2]; Dab = NCC[C@H](N)C(=O)O; Dap = NC[C@H](N)C(=O)O

Tested on: HepG2 cells
Assay: In vitro cytotoxicity, fluorometric microculture cytotoxicity assay
Type: cell-based
Settings: Homo sapiens, HepG2 liver, 72 h
Procedure: 10^8 CFU/mL) with turbidity assessed using a Sensititre Nephelometer (Trek Diagnostics Systems Ltd, UK). 50 µL of this bacterial suspension was transferred to 10 mL of MHII broth to give a final bacterial concentration ≅ 5 × 10^5 CFU/mL (acceptable range 3 – 7 × 10^5 CFU/mL). 50 µL of bacterial suspension was pipetted into each well (except the medium control well, where 50 µL MHII was pipetted). Final volume in each well was 100 µL. Plates were covered and incubated without shaking for 18-20 h at 35 °C ± 2 °C. MIC was read visually, as complete inhibition of growth by the unaided eye, using the medium-only wells as the control. Each compound was assayed at least in duplicate.
Additionally, the MIC for compound 2 against clinical carbapenem-resistant strains of A. baumannii […]
determined at the Public Health Agency of Sweden (according to EUCAST recommendations).
In vitro Cytotoxicity Determination. In vitro cytotoxicity was determined by a fluorometric microculture cytotoxicity assay,7 based on hydrolysis of fluorescein diacetate to fluorescein by cells with intact plasma membranes. In short, HepG2 cells (hepatocellular carcinoma cells, ATCC), in Eagle's Minimum Essential Medium (ATCC) supplemented with 10 % fetal bovine serum, penicillin/streptomycin (100 U/100 µg/mL) and 2 mM L-glutamine, were seeded in 384-well assay plates at a density of 1000 cells/well. The cells were incubated over night at 37°C and compounds in 10 mM DMSO were added, to obtain final concentrations 64 µM – 0.25 µM in two-fold dilutions.
After incubation for 72 h at 37°C, the cells were pelleted and washed. Fluorescein diacetate was added (1 µL, 0.5 mg/mL) and the fluorescence [485 nm(exc)/530 nm(em.)] was measured after 50 min at 37°C. Bortezomib (2 µM) was used as positive control and dose response testing of doxorubicin (top concentration 2 µM) was performed repeatedly to follow assay performance over time. Cytotoxicity was assessed after 72 h with cell survival presented as survival index (SI, %) defined as fluorescence in test wells in percent of control cultures with blank values subtracted.
Criteria for a successful assay include a signal-to-noise ratio in control cultures >10, CV <30% and a 7 Lindhagen, E., Nygren, P., and Larsson, R. (2008) The fluorometric microculture cytotoxicity assay. Nat. […]
positive control (Bortezomib) SI of <5%. The half maximal inhibitory concentration (IC50) was determined from log concentration-effect curves using non-linear regression analysis.
Frequency of resistance (FoR). For the determination of the FoR, the MIC of compound 2 was first evaluated on solid MH-agar medium prepared in 35 mm diameter plates. Each plate contained 4 mL agar with the appropriate amount of compound. Bacterial cultures were grown and prepared as described for the MIC assay. 13 µL of bacterial culture diluted to 0.5 MacFarland was inoculated into 1 mL 0.9% NaCl resulting in ~2 × 10^6 CFU/mL. 5 µL of this bacterial suspension was spotted onto the surface of each agar plate (~10^4 CFU/spot). Plates were sealed and incubated at 37°C for 18–20 hours. Agar MIC was recorded according to CLSI guidelines as the lowest concentration of […]
faint haze caused by the inoculum. Then 9 cm plates were prepared with 25 mL MHII agar medium containing 4 × or 8 × solid MIC concentrations of test compounds and seeded with 100 µL of a bacterial preparation, concentrated by centrifugation from overnight cultures and resuspended in 0.9% NaCl, corresponding to 108 CFU and 109 CFU per plate, and spread on the agar using 4–5 glass beads of 4 mm diameter. Since CFU were evaluated using the McFarland turbidity standard, the exact CFU number plated was evaluated by plating of serial dilutions of each inoculum preparation on MHII agar plates. Plates were incubated at 37°C and colonies were counted at 24 h and 48 h post-plating. The frequencies of resistance were then calculated by counting the number of validated resistant colonies growing on antibiotic preparations divided by the evaluated number of CFU in the inoculum. […]

Row | SMILES | IC50 (read-out: IC50(μM) HepG2) [µM] | IC50 (read-out: IC50(μg/mL) HepG2) [µg/mL]
1 | C/C=C1/NC(=O)[C@H](CCN)NC(=O)[C@H](CC(C)C)NC(=O)[C@H](CN)NC(=O)C[C@@H](CCCCCCCC(C)C)OC(=O)[C@H](CC(=O)O)NC(=O)[C@H](C(C)(C)O)NC(=O)[C@@H](Cc2ccccc2)NC(=O)[C@H](CN)NC(=O)[C@H]([C@@H](C)O)NC1=O [Compound 6, Isopedopeptin F] ([Dap]L[Dab][X1]T[Dap][dF][Val(3-OH)]D; linker N-C via X5) | 9 | 10
2 | C/C=C1/NC(=O)[C@H](CCN)NC(=O)[C@H](CC(C)C)NC(=O)[C@H](CN)NC(=O)C[C@@H](CC=CCCCCCC)OC(=O)[C@H](CC(=O)O)NC(=O)[C@H](C(C)(C)O)NC(=O)[C@@H](Cc2ccccc2)NC(=O)[C@H](CN)NC(=O)[C@H]([C@@H](C)O)NC1=O [Compound 3, isopedopeptin C] ([Dap]L[Dab][X1]T[Dap][dF][Val(3-OH)]D; linker N-C via X7) | 29 | 33
3 | C/C=C1/NC(=O)[C@H](CCN)NC(=O)[C@H](CC(C)C)NC(=O)[C@H](CN)NC(=O)C[C@@H](CCCCCCC)OC(=O)[C@H](CC(=O)O)NC(=O)[C@H](C(C)(C)O)NC(=O)[C@@H](Cc2ccccc2)NC(=O)[C@H](CN)NC(=O)[C@H]([C@@H](C)O)NC1=O [Compound 2, isopedopeptin B] ([Dap]L[Dab][X1]T[Dap][dF][Val(3-OH)]D; linker N-C via X2) | 50 | 56
4 | C/C=C1/NC(=O)[C@H](CCN)NC(=O)[C@H](CC(C)C)NC(=O)[C@H](CN)NC(=O)C[C@@H](CCCC=CCCC(C)C)OC(=O)[C@H](CC(=O)O)NC(=O)[C@H](C(C)C)NC(=O)[C@@H](Cc2ccccc2)NC(=O)[C@H](CN)NC(=O)[C@H]([C@@H](C)O)NC1=O [Compound 7, Isopedopeptin G] ([Dap]L[Dab][X1]T[Dap][dF]VD; linker N-C via X4) | 11 | 13
5 | C/C=C1/NC(=O)[C@H](CCN)NC(=O)[C@H](CC(C)C)NC(=O)[C@H](CN)NC(=O)C[C@@H](CC=CCCCCC(C)C)OC(=O)[C@H](CC(=O)O)NC(=O)[C@H](C(C)C)NC(=O)[C@@H](Cc2ccccc2)NC(=O)[C@H](CN)NC(=O)[C@H]([C@@H](C)O)NC1=O [Compound 8, Isopedopeptin H] ([Dap]L[Dab][X1]T[Dap][dF]VD; linker N-C via X6) | 14 | 16
6 | C/C=C1/NC(=O)[C@H](CCN)NC(=O)[C@H](CC(C)C)NC(=O)[C@H](CN)NC(=O)C[C@@H](CCCCCCC)OC(=O)[C@H](CC(=O)O)NC(=O)[C@H](C(C)C)NC(=O)[C@@H](Cc2ccccc2)NC(=O)[C@H](CN)NC(=O)[C@H]([C@@H](C)O)NC1=O [Compound 4, isopedopeptin D] ([Dap]L[Dab][X1]T[Dap][dF]VD; linker N-C via X2) | 9 | 10
7 | C/C=C1/NC(=O)[C@H](CCN)NC(=O)[C@H](CC(C)C)NC(=O)[C@H](CN)NC(=O)C[C@@H](CCCCCC(C)C)OC(=O)[C@H](CC(=O)O)NC(=O)[C@H](C(C)(C)O)NC(=O)[C@@H](Cc2ccccc2)NC(=O)[C@H](CN)NC(=O)[C@H]([C@@H](C)O)NC1=O [Compound 1, cyclo(3-hydroxy-9-methyldecanoyl-DAPA1-Leu-DABA-ABA-Thr-DAPA2-Phe-OHVal-Asp)] ([Dap]L[Dab][X1]T[Dap][dF][Val(3-OH)]D; linker N-C via X3) | 29 | 33
8 | C/C=C1/NC(=O)[C@H](CCN)NC(=O)[C@H](CC(C)C)NC(=O)[C@H](CN)NC(=O)C[C@@H](CCCCCC(C)C)OC(=O)[C@H](CC(=O)O)NC(=O)[C@H](C(C)C)NC(=O)[C@@H](Cc2ccccc2)NC(=O)[C@H](CN)NC(=O)[C@H]([C@@H](C)O)NC1=O [Compound 5, Isopedopeptin E] ([Dap]L[Dab][X1]T[Dap][dF]VD; linker N-C via X3) | 13 | 14
